According to BindingDB's records for doi:10.7270/Q2XD103V (Vanderbilt Screening Center for GPCRs, Ion Channels and …, 2010):

Molecular target: T1, Muscarinic acetylcholine receptor M4 (Rattus norvegicus, UniProt P08485)
T1 sequence (P08485 whole entry): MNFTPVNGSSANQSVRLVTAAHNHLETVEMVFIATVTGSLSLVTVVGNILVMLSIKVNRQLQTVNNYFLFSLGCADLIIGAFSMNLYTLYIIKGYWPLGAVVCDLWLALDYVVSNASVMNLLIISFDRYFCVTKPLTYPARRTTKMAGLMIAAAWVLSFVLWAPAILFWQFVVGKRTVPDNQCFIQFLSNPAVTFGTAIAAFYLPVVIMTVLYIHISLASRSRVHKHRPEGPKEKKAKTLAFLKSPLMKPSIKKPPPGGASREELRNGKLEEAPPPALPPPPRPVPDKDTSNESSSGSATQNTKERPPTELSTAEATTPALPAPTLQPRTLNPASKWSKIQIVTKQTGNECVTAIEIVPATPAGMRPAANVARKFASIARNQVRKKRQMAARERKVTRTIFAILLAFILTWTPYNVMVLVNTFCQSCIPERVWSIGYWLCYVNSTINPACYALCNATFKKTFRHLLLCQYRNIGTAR
Assay: potentiation of rat muscarinic M4 receptor – cell-based, analogs, SAR follow-up (AID 1938)

SMILES | EC50 [µM]
Cc1cc(C)c2c(N)c(C(=O)NCc3ccc4c(c3)OCO4)sc2n1 [3-amino-4,6-dimethyl-N-piperonyl-thieno[2,3-b]pyridine-2-carboxamide] | 0.403
COc1ccc(CNC(=O)c2sc3nc(OCc4ccncc4)cc(C)c3c2N)cc1 [3-amino-4-methyl-N-p-anisyl-6-(4-pyridylmethoxy)thieno[2,3-b]pyridine-2-carboxamide] | 1.96
Cc1cc(OCc2ccncc2)nc2sc(C(=O)NCc3cccc(F)c3F)c(N)c12 [3-amino-N-(2,3-difluorobenzyl)-4-methyl-6-(4-pyridylmethoxy)thieno[2,3-b]pyridine-2-carboxamide] | 1.67
